“Also recorded” adds a separate entry of the source.
Tests used:
[1] = target: T1, human FIXa (Homo sapiens, UniProt P00740); assay: Chromogenic FVIII-like (FXa generation) assay with human FIXa added; type: biochemical
T1 construct: with (+) and without (−) addition of 50 ng human FIXaβ; purchased ERL (Enzyme Research Laboratories)
Method: The chromogenic activity of these antibody preparations was measured in the following FXa generation kinetic assay: 10 μg of monoclonal antibody (in 25 μl) were transferred to microtiter plate wells and warmed to 37° C. Chromogenic substrate (S-2222), synthetic thrombin inhibitor (I-2581), factor IXa and FX were reconstituted in sterile water and FIXa/FX (both bovine) were mixed with phospholipids according to the supplier's protocol. Per reaction, 50 μl of the phospholipid/FIXa/FX solution were combined with 25 μl CaCl2 (25 mM) and 50 μl of the substrate/inhibitor cocktail. To start the reaction, 125 μl of the premix were added to the monoclonal antibody solution in the microtiter plates and incubated at 37° C. Absorbance at 405 nm and 490 nm of the samples was read at various times (5 min to 2 h) against a reagent blank ([…] TBS instead of monoclonal antibodies) in a Labsystems iEMS Reader MF™ microtiter plate reader using GENESIS™ software. In parallel, the same reactions were performed except that 50 ng human FIXa were added per reaction.
To analyze the FVIII-like (FIXa activating) activity of the peptides, an assay system based on a commercial available FVIII assay was developed (see examples 2 and 4). The basic principle is, that without a cofactor, FIXa will have very limited activity towards its natural substrate FX. […] The amount of FXa generated is monitored by cleavage of a chromogenic substrate. The principle of the revised chromogenic assay is described for two representative peptides: A1/3 and A1/5 (Table 2). Briefly, 25 μl aliquots of peptide stock solution (in imidazole buffer (IZ) 50 mM imidazole, 100 mM NaCl, pH 7.2) were transferred to microtiter plate wells and warmed to 37° C. Chromogenic FXa substrate (S-2222), synthetic thrombin inhibitor (I-2581), bovine FIXa and bovine FX were reconstituted in sterile water and FIXa/FX mixed with phospholipids according to the supplier's protocol. […] Per reaction, 50 μl of the phospholipid/FIXa/FX solution were combined with 25 μl CaCl2 (25 mM) and 50 μl of the substrate/inhibitor cocktail. To start the reaction, 125 μl of the premix were added to the peptide solution in the microtiter plate and incubated at 37° C. Absorbance at 405 nm and 490 nm of the samples was read at various times (5 min to 2 h) against a reagent blank in a Labsystems iEMS Reader MF™ microtiter plate reader using GENESIS™ software.

[2] = tested on: FVIII deficient plasma; assay: aPTT based one stage clotting assay in FVIII deficient plasma; type: biochemical, human; settings: for one-stage clotting time (printed in brackets after 'strong reduction' / 'strongly active'): 2.2 nM human FIXa
Method: During normal hemostasis, FIX becomes initially activated either by the tissue factor (TF)/factor VIIa pathway or later on by activated factor XI (FXIa). Subsequent to its activation, FIXa associates on the platelet surface in a membrane bound complex with activated FVIII. […] Different amounts of antibody 193/AD3 or mouse IgG (as a control) were used in a standard aPTT based one stage clotting assay. Briefly, 100 μl of antibody-containing samples were incubated with 100 μl of FVIII deficient plasma (DP) and with 100 μl of DAPTTIN (PTT Reagent for determining activated Thromboplastin Time; IMMUNO AG) reagent, in a KC10A clotting analyzer. Where indicated, a total amount of 50 ng activated FIX was included in the reaction mixture. After a 4 minute incubation, the reaction was started by the addition of 100 μl CaCl2 (25 mM).
The peptides were also analyzed for their potential to reduce the clotting time in a FVIII deficient plasma. The aPTT based one stage clotting assay was essentially done as described (see example 6). Clotting times (time from starting the reaction to the “clot”-formation were compared either against FVIII, a buffer control (IZ) or a control peptide (scrambled version). The results of two typical clotting experiments done with two different aPTT reagents (DAPTTIN and Pathromtin SL) are shown in table 3A and table 3B.

[3] = in the presence of 2.2 nM human FIXa
[4] = 12.5 nM peptide, (+) presence of activated human FIX
[5] = 12.5 nM peptide, (−) absence of activated human FIX
[6] = 0.125 μM peptide, (+) presence of activated human FIX
[7] = 0.125 μM peptide, (−) absence of activated human FIX
[8] = 1.25 μM peptide, (+) presence of activated human FIX
[9] = 1.25 μM peptide, (−) absence of activated human FIX
[10] = 12.5 μM peptide, (+) presence of activated human FIX
[11] = 12.5 μM peptide, (−) absence of activated human FIX

RRREGAGYYVNWYFDRRR [A1/3-2] was tested, and the chromogenic activity ([1]; Alanine scan) was “high chromogenic activity”, the “one-stage clotting time (printed in brackets after 'strong reduction' / 'strongly active')” value ([2]; 12.5 μM) was 34 s and the one-stage clotting activity [2, 3] was “strong reduction of the one-stage clotting time”.

With RRREGGAYYVNWYFDRRR [A1/3-3] the “final concentration of optimum chromogenic activity” value [1] was ~12 µM, the “one-stage clotting time (printed in brackets after 'strong reduction' / 'strongly active')” value ([2]; 12.5 μM) was 31 s and the one-stage clotting activity ([2]; higher concentrations (12.5 μM), absence of FIXa) was “somewhat inhibitory”. For the same sequence, the one-stage clotting activity [2, 3] was “strongly active”.

In the case of RRREGGEYYVNWYFDRRR [A1/3-24], the “chromogenic FVIII-like activity at higher concentrations” value ([1]; up to 24 μM) is reported as “lost activity”, the procoagulant activity ([2]; absence of human FIXa) is reported as “no procoagulant activity” and the one-stage clotting activity [2, 3] is reported as “strongly active”.

In the case of RRREGGGFTVNWYFDRRR [B1/7], the “FIXa activating activity (generation of FXa)” value ([1]; 2.4 μM peptide, 2.3 nM human FIXa) is reported as “well measurable generation of FXa; also recorded: measureable generation of Fxa”, the “FXa generation without FIXa and FX” value ([1]; 2.4 μM peptide, w/o FIXa/FX) is reported as “no FXa was synthesized; also recorded: no reaction is detectable” and the clotting time [2, 4] is reported as 99 s. It also gave a clotting time [2, 5] of 110 s, a clotting time [2, 6] of 99 s and a clotting time [2, 7] of 109 s. It also gave a clotting time [2, 8] of 92 s, a clotting time [2, 9] of 112 s and a clotting time [2, 10] of 83 s. For the same sequence, the clotting time [2, 11] was 157 s.

RRRFGVGYGETNFDWRRR [B1/7scr3] was tested, and the “FIXa activating activity in chromogenic assay” value ([1]; data not shown) was “no activity”, the clotting time [2, 4] was 94 s and the clotting time [2, 5] was 105 s. For the same sequence, the clotting time [2, 6] was 94 s, the clotting time [2, 7] was 106 s and the clotting time [2, 8] was 94 s. The clotting time [2, 9] was 105 s, the clotting time [2, 10] was 102 s and the clotting time [2, 11] was 115 s.

RRRGEYGVYWNGDFYRRR [A1/3-scr3] was tested, and the “chromogenic FVIII-like activity (FXa generation)” value ([1]; 2.9 nM human FIXa) was “did not give any significant chromogenic activity”, the average clotting time ([2]; Table 3A Exp. 1, DAPTTIN, 2.5 μM, 2.2 nM FIXa) was 96 s and the clotting time ([2]; Table 3A Exp. 1, DAPTTIN, 2.5 μM, 2.2 nM FIXa, duplicate 1) was 96.3 s. It also gave a clotting time ([2]; Table 3A Exp. 1, DAPTTIN, 2.5 μM, 2.2 nM FIXa, duplicate 2) of 95.2 s, an average clotting time ([2]; Table 3A Exp. 1, DAPTTIN, 2.5 μM, w/o FIXa) of 108 s and a clotting time ([2]; Table 3A Exp. 1, DAPTTIN, 2.5 μM, w/o FIXa, duplicate 1) of 107.8 s. The clotting time ([2]; Table 3A Exp. 1, DAPTTIN, 2.5 μM, w/o FIXa, duplicate 2) was 107.4 s, the average clotting time ([2]; Table 3A Exp. 1, DAPTTIN, 7.5 μM, 2.2 nM FIXa) was 101 s and the clotting time ([2]; Table 3A Exp. 1, DAPTTIN, 7.5 μM, 2.2 nM FIXa, duplicate 1) was 100.8 s. The clotting time ([2]; Table 3A Exp. 1, DAPTTIN, 7.5 μM, 2.2 nM FIXa, duplicate 2) was 100.6 s, the average clotting time ([2]; Table 3A Exp. 1, DAPTTIN, 7.5 μM, w/o FIXa) was 114 s and the clotting time ([2]; Table 3A Exp. 1, DAPTTIN, 7.5 μM, w/o FIXa, duplicate 1) was 114.2 s. The clotting time ([2]; Table 3A Exp. 1, DAPTTIN, 7.5 μM, w/o FIXa, duplicate 2) was 113.9 s, the average clotting time ([2]; Table 3A Exp. 1, DAPTTIN, 12.5 μM, 2.2 nM FIXa) was 104 s and the clotting time ([2]; Table 3A Exp. 1, DAPTTIN, 12.5 μM, 2.2 nM FIXa, duplicate 1) was 103.1 s. The clotting time ([2]; Table 3A Exp. 1, DAPTTIN, 12.5 μM, 2.2 nM FIXa, duplicate 2) was 104.5 s, the average clotting time ([2]; Table 3A Exp. 1, DAPTTIN, 12.5 μM, w/o FIXa) was 117 s and the clotting time ([2]; Table 3A Exp. 1, DAPTTIN, 12.5 μM, w/o FIXa, duplicate 1) was 116 s. It also gave a clotting time ([2]; Table 3A Exp. 1, DAPTTIN, 12.5 μM, w/o FIXa, duplicate 2) of 117.6 s, an average clotting time ([2]; Table 3A Exp. 1, DAPTTIN, 15 μM, 2.2 nM FIXa) of 106 s and a clotting time ([2]; Table 3A Exp. 1, DAPTTIN, 15 μM, 2.2 nM FIXa, duplicate 1) of 106.1 s. It also gave a clotting time ([2]; Table 3A Exp. 1, DAPTTIN, 15 μM, 2.2 nM FIXa, duplicate 2) of 105.5 s, an average clotting time ([2]; Table 3A Exp. 1, DAPTTIN, 15 μM, w/o FIXa) of 122 s and a clotting time ([2]; Table 3A Exp. 1, DAPTTIN, 15 μM, w/o FIXa, duplicate 1) of 122.5 s. The clotting time ([2]; Table 3A Exp. 1, DAPTTIN, 15 μM, w/o FIXa, duplicate 2) was 122 s.
